Results: the NIST ThermoML archive (doi:10.1016/j.jct.2018.02.022)

Assay: xn = mol fraction of the nth substance listed
Settings: 92.3 kPa, Liquid; for viscosity: Concentric cylinders viscometry; for speed of sound: Frequency=3 MHz, Single path-length method; for mass density: Vibrating tube method

OCCOCCO [diethylene glycol] + O
Settings | mass density, 303.15 K [kg/m3] | mass density, 308.15 K [kg/m3] | speed of sound, 303.15 K [m/s] | speed of sound, 308.15 K [m/s] | viscosity, 303.15 K [mPa·s] | viscosity, 308.15 K [mPa·s]
x1 = 0.0097 | 1003.37 | 1001.63 | 1533.2 | 1542 | – | –
x1 = 0.0201 | 1010.67 | 1008.81 | 1557.2 | 1564 | – | –
x1 = 0.0297 | 1017 | 1015.02 | 1577.4 | 1582.4 | – | –
x1 = 0.0397 | 1023.28 | 1021.17 | 1596.1 | 1599.4 | – | –
x1 = 0.049 | 1028.58 | 1026.33 | – | – | 1.6 | 1.413
x1 = 0.0502 | 1029.24 | 1026.99 | 1614 | 1615.7 | – | –
x1 = 0.0591 | 1033.98 | 1031.63 | 1627.4 | 1627.8 | – | –
x1 = 0.0703 | 1039.6 | 1037.11 | 1642.7 | 1641.6 | – | –
x1 = 0.0796 | 1043.88 | 1041.29 | 1653.2 | 1650.9 | – | –
x1 = 0.0897 | 1048.13 | 1045.45 | 1663.2 | 1659.9 | – | –
x1 = 0.0992 | 1051.97 | 1049.2 | – | – | 2.605 | 2.273
x1 = 0.1004 | 1052.46 | 1049.66 | 1672.7 | 1668.3 | – | –
x1 = 0.149 | 1068.06 | 1064.94 | – | – | 3.83 | 3.297
x1 = 0.1507 | 1068.42 | 1065.27 | 1698.5 | 1690.5 | – | –
x1 = 0.1996 | 1079.15 | 1075.79 | 1705.1 | 1695.2 | – | –
x1 = 0.1998 | 1079.37 | 1076.01 | – | – | 5.27 | 4.501
x1 = 0.2467 | 1086.77 | 1083.27 | 1701.8 | 1690.9 | – | –
x1 = 0.249 | 1086.95 | 1083.44 | – | – | 6.766 | 5.753
x1 = 0.2943 | 1091.84 | 1088.25 | 1694.1 | 1682.5 | – | –
x1 = 0.2987 | 1092.38 | 1088.8 | – | – | 8.326 | 7.056
x1 = 0.3501 | 1096.45 | 1092.82 | – | – | 9.951 | 8.401
x1 = 0.3511 | 1096.61 | 1092.99 | 1681.7 | 1669.7 | – | –
x1 = 0.3995 | 1099.42 | 1095.83 | 1670.2 | 1658 | – | –
x1 = 0.4007 | 1099.43 | 1095.8 | – | – | 11.5 | 9.648
x1 = 0.4504 | 1101.7 | 1098.07 | – | – | 12.97 | 10.79
x1 = 0.4527 | 1101.88 | 1098.24 | 1657.7 | 1645.4 | – | –
x1 = 0.4973 | 1103.4 | 1099.78 | – | – | 14.26 | 11.82
x1 = 0.5008 | 1103.56 | 1099.92 | 1646.6 | 1634.3 | – | –
x1 = 0.5449 | 1104.75 | 1101.11 | 1637.3 | 1625 | – | –
x1 = 0.553 | 1105 | 1101.38 | – | – | 15.69 | 12.94
x1 = 0.5834 | 1105.61 | 1101.98 | 1629.2 | 1617 | – | –
x1 = 0.5938 | 1105.91 | 1102.29 | – | – | 16.62 | 13.67
x1 = 0.6482 | 1106.76 | 1103.13 | 1616.6 | 1604.4 | – | –
x1 = 0.6514 | 1106.89 | 1103.27 | – | – | 17.9 | 14.67
x1 = 0.6864 | 1107.34 | 1103.72 | – | – | 18.56 | 15.18
x1 = 0.6982 | 1107.42 | 1103.8 | 1608.1 | 1596 | – | –
x1 = 0.7444 | 1107.94 | 1104.33 | 1600.4 | 1588.3 | – | –
x1 = 0.7556 | 1108.01 | 1104.38 | – | – | 19.68 | 16.06
x1 = 0.7962 | 1108.41 | 1104.81 | 1592.7 | 1580.7 | – | –
x1 = 0.7999 | 1108.35 | 1104.73 | – | – | 20.32 | 16.57
x1 = 0.8401 | 1108.74 | 1105.14 | 1586.6 | 1574.5 | – | –
x1 = 0.8525 | 1108.74 | 1105.13 | – | – | 20.98 | 17.08
x1 = 0.8947 | 1109.09 | 1105.49 | 1579.5 | 1567.5 | – | –
x1 = 0.9002 | 1109.09 | 1105.5 | – | – | 21.55 | 17.53
x1 = 0.9092 | 1109.17 | 1105.58 | 1577.7 | 1565.7 | – | –
x1 = 0.919 | 1109.23 | 1105.64 | 1576.5 | 1564.5 | – | –
x1 = 0.9303 | 1109.27 | 1105.68 | 1575.3 | 1563.3 | – | –
x1 = 0.9393 | 1109.28 | 1105.69 | 1574.3 | 1562.3 | – | –
x1 = 0.9473 | 1109.36 | 1105.77 | 1573.3 | 1561.4 | – | –
x1 = 0.9554 | 1109.45 | 1105.86 | – | – | 22.07 | 17.95
x1 = 0.9566 | 1109.41 | 1105.82 | 1572.2 | 1560.2 | – | –
x1 = 0.9694 | 1109.47 | 1105.88 | 1570.8 | 1558.9 | – | –
x1 = 0.9801 | 1109.52 | 1105.93 | 1569.6 | 1557.7 | – | –
x1 = 0.9915 | 1109.56 | 1105.97 | 1568.3 | 1556.4 | – | –
x1 = 1 | 1109.6 | 1106.01 | 1567.2 | 1555.3 | 22.48 | 18.27
